Data published in patent publication US20140121240A1, “NOVEL PHARMACEUTICAL COMPOSITION” (MARUHO CO., LTD., priority 2011, published 2014).

Tests used:
[1] = test system: oxazolone-induced scratching behavior; experiment: Chronic oxazolone-induced dermatitis model: scratching behavior (Experiment 4); format: in vivo, mouse; conditions: for Counts of scratching (Mean ± standard error): Compound A 1%, Tacrolimus 0.1%, Dexamethasone 0.01% w/v in 0.25% oxazolone
Protocol: [Antipruritic Effect of Test Compound in Chronic Oxazolone-Induced Dermatitis Model]
A magnet for measurement was implanted into an instep part of right hindlimb of BALB/c male mouse (fed for one week from five-week old; Charles River Laboratories, Japan Inc.) under anesthesia, and on the same day, sensitization was carried out by topically administering 0.5% w/v solution (10 μL) of oxazolone in acetone respectively onto the both sides of right ear auricle of the animal (sensitization day). On each point of the 7th, 9th, 11th, 14th and 16th day reckoned from the day after the sensitization (1st day), each mouse was challenged by topical administration of a 10 μL solution of test compound [acetone (vehicle-treated group), 0.25% w/v solution of oxazolone in acetone (oxazolone-treated group), or a test compound solubilized in 0.25% w/v oxazolone solution in acetone (test compound-treated group)] onto the both sides of right ear auricle of the animal to produce inflammatory reactions. Immediately after the administration, scratching behavior (counts of scratching) was measured for two hours by MicroAct. Thickness of right ear auricle of each mouse was measured by a thickness gauge before and 24 hours after the topical administration of each test compound solution. The percentage described in the Table means “% w/v”.

[2] = test system: histamine-induced scratching behavior; experiment: Antipruritic activity in histamine-induced scratching model, dose response (Experiment 3 (1)); format: in vivo, mouse
Protocol: (1) [Antipruritic Activity of Test Compound in Histamine-Induced Scratching Model]
After topical administration of a solution (50 μL) of test compound (0.3 to 3% w/v solution of Compound A in acetone, or 0.03 to 0.3% w/v solution of cipamfylline in acetone), or a vehicle (acetone; 50 μL) onto right dorsal neck of ICR female mice similarly pre-treated as described in Experiment 1, these animals were placed into a testing apparatus (MicroAct). After one hour of the administration of said test compound solution or vehicle, a solution (50 μL) of histamine in saline (300 nmol/50 μL) or saline (50 μL; control group) was intradermally administered to right dorsal neck of each mouse. Immediately after the administration, scratching behavior (counts of scratching) was measured for 30 minutes by the testing apparatus (MicroAct).

COc1cc2cc(CO)c(CO)c(-c3ccnc(N4CC[C@H](O)c5ccccc54)c3)c2cc1OC [Compound A, 1-[2-(4S)-4-hydroxy-1,2,3,4-tetrahydroquinolin-1-yl]-4-pyridyl]-2,3-bis(dihydroxymethyl)-6,7-dimethoxynaphthalene sesquihydrate]
Counts of scratching (Mean ± standard error) ([1]; 7th day, BALB/c male mouse): 931 ± 135 (**) beats/2 hr. | Counts of scratching (Mean ± standard error) ([1]; 9th day): 664 ± 99 (**) beats/2 hr. | Counts of scratching (Mean ± standard error) ([1]; 11th day): 577 ± 77 (*) beats/2 hr. | Counts of scratching (Mean ± standard error) ([1]; 14th day): 863 ± 122 (**) beats/2 hr. | inhibitory effect on the counts of scratching (antipruritic effect), result in words ([1]; 16th day): inhibitory effect on the counts of scratching | Counts of scratching (Mean ± standard error) ([1]; 16th day): 959 ± 166 (*) beats/2 hr. | Counts of scratching (Mean) ([2]; 0.3% w/v in acetone 50 μL topical 1 h before histamine 300 nmol/50 μL): 634 beats/30 min. | Counts of scratching (Mean) ([2]; 1% w/v in acetone 50 μL topical 1 h before histamine 300 nmol/50 μL): 611 beats/30 min. | Counts of scratching (Mean) ([2]; 3% w/v in acetone 50 μL topical 1 h before histamine 300 nmol/50 μL): 314 beats/30 min.
